The text below walks through data of PubChem BioAssay (NCI).

Test systems include HCT-116 colon; HL-60(TB) leukemia; HOP-62 NSCLC; U251 CNS; SNB-75 CNS; MOLT-4 leukemia; SF-539 CNS; M14 melanoma; UACC-257 melanoma; NCI/ADR-RES ovarian.
What all share (assay): DTP human tumour cell line panel, 48 h

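Compound exposure: 48 hours, 5 concentrations, 96-well plates. GI50 is the concentration that inhibits growth by half. The concentration for full growth arrest is given as TGI.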

The term TGI denotes the concentration at which net growth stops. Usually GI50 stands for the concentration at which growth is held to half of that of the control.

`O=C(OCc1ccccc1)C(Cc1ccccc1)N(Cc1ccccc1)Cc1ccccc1` (centres undefined): the TGI in the assay on HCT-116 colon, in the assay with HL-60(TB) leukemia, in the assay with HOP-62 NSCLC, in the assay on U251 CNS, in the assay with SNB-75 CNS and in the assay with MOLT-4 leukemia was greater than 100 µM in each case. In addition, the TGI with SF-539 CNS, with M14 melanoma and in the assay on UACC-257 melanoma was greater than 100 µM in each case.
On to `Nc1nc(Nc2ccccc2)sc1C(=O)c1c[nH]c2ccccc12`, for which the TGI worked out at 19.5 µM with HCT-116 colon; 46.2 µM in the assay with HL-60(TB) leukemia; 30.9 µM in the assay on HOP-62 NSCLC; 23.6 µM in the assay on U251 CNS; 25.8 µM in the assay with MOLT-4 leukemia; 44.7 µM in the assay on NCI/ADR-RES ovarian. Besides, the TGI in the assay on SF-539 CNS is 27.4 µM; in the assay with M14 melanoma, 20.6 µM; with UACC-257 melanoma it was 22.6 µM.
Consider `COC(=O)C1=C(O)C(C(=O)OC)[C@@]2(O)[C@@H](C(=O)OC)[C@H](C)[C@@H](C)[C@@H]1[C@@H]2C(=O)OC` (some centres undefined), for which the TGI in the assay with HCT-116 colon, in the assay on HL-60(TB) leukemia, in the assay with HOP-62 NSCLC, in the assay on U251 CNS, in the assay on SNB-75 CNS and with MOLT-4 leukemia was greater than 100 µM each time. Moreover, the TGI in the assay with SF-539 CNS, in the assay with M14 melanoma and with UACC-257 melanoma was greater than 100 µM throughout.
As to `CCOC(=O)C(C)c1nc2c(Cl)c3ncccc3cc2[nH]c1=O` (centres undefined), the TGI in the assay with HCT-116 colon, in the assay on HOP-62 NSCLC, with U251 CNS, with SNB-75 CNS, with MOLT-4 leukemia and with NCI/ADR-RES ovarian was greater than 100 µM throughout. The TGI with M14 melanoma and in the assay on UACC-257 melanoma was greater than 100 µM throughout.
With `Nc1nc(Nc2ccc(Cl)cc2)sc1C(=O)c1cccs1`, the TGI was greater than 100 µM with HCT-116 colon; greater than 100 µM with HL-60(TB) leukemia; 53.6 µM in the assay with HOP-62 NSCLC; 38.4 µM with U251 CNS; greater than 100 µM in the assay with MOLT-4 leukemia; greater than 100 µM in the assay with NCI/ADR-RES ovarian. Moreover, the TGI in the assay with SF-539 CNS was 61 µM; with M14 melanoma, greater than 100 µM; in the assay with UACC-257 melanoma, greater than 100 µM.
Consider `CCCCN(CCCC)C(=C(C(Cl)=C(Cl)Cl)[N+](=O)[O-])N(CCCC)CCCC`, for which the TGI in the assay on HCT-116 colon, in the assay with HOP-62 NSCLC, in the assay on U251 CNS, in the assay on SNB-75 CNS, in the assay on NCI/ADR-RES ovarian and in the assay on SF-539 CNS was greater than 100 µM throughout. In addition, the TGI with M14 melanoma and with UACC-257 melanoma was greater than 100 µM in each case.
For the molecule `CCN1C(=O)N(CC)C2Nn3c(s/c(=C4\C(=O)N(C)c5ccccc54)c3=O)=NC21` (centres undefined), the GI50 in the assay with HCT-116 colon is 1.95 µM; in the assay with U251 CNS, 4.21 µM; with MOLT-4 leukemia it was 3.92 µM; in the assay on NCI/ADR-RES ovarian, 1.95 µM; in the assay with M14 melanoma, 2.41 µM; in the assay on UACC-257 melanoma, 7.71 µM. Further, the TGI in the assay on HCT-116 colon, in the assay with U251 CNS, in the assay on MOLT-4 leukemia, in the assay on NCI/ADR-RES ovarian, in the assay with M14 melanoma and with UACC-257 melanoma was greater than 100 µM throughout.
Turning to `COC(=O)[C@H](Cc1ccccc1)NC(=O)c1ccc(CNC(=O)/C=C/c2cccc(Oc3ccccc3)c2)cc1`, the concentration for total growth inhibition (TGI) in the assay with HCT-116 colon, with HOP-62 NSCLC, in the assay on U251 CNS, in the assay with SNB-75 CNS, in the assay with MOLT-4 leukemia and in the assay with NCI/ADR-RES ovarian was greater than 100 µM each time. The TGI in the assay with M14 melanoma was determined as 30.8 µM; in the assay with UACC-257 melanoma, 21.8 µM.
Take `CSC(SC)=C1C(=O)N(c2ccccc2)N=C1C`: the concentration for total growth inhibition (TGI) in the assay on HCT-116 colon is 54 µM; in the assay with HOP-62 NSCLC, greater than 100 µM; in the assay on U251 CNS, greater than 100 µM; with SNB-75 CNS, greater than 100 µM; in the assay with MOLT-4 leukemia, 52.9 µM; in the assay on NCI/ADR-RES ovarian, greater than 100 µM. Further, the concentration for total growth inhibition (TGI) in the assay on SF-539 CNS was greater than 100 µM; in the assay on M14 melanoma it was 60.8 µM; in the assay with UACC-257 melanoma, greater than 100 µM.
On to `COc1cc([C@@H]2c3cc4c(cc3[C@@H](c3c(O)cc(O)c5c3O[C@H](c3ccc(O)c(O)c3)[C@@H](O)C5)[C@H]3COC(=O)[C@H]23)OCO4)cc(OC)c1O`, for which the TGI in the assay on HCT-116 colon, in the assay with HL-60(TB) leukemia, with HOP-62 NSCLC, in the assay with U251 CNS, in the assay on MOLT-4 leukemia and with NCI/ADR-RES ovarian was greater than 100 µM each time. Moreover, the TGI with SF-539 CNS, in the assay on M14 melanoma and in the assay on UACC-257 melanoma was greater than 100 µM each time.
Regarding `COc1ccc(N=NC(=Nc2ccc(F)cc2)c2ccc(N(CCC#N)CCC#N)cc2)cc1`, the TGI is greater than 100 µM in the assay with HCT-116 colon; greater than 100 µM with HOP-62 NSCLC; 84.4 µM with U251 CNS; 84.1 µM in the assay with SNB-75 CNS; greater than 100 µM in the assay on MOLT-4 leukemia; greater than 100 µM with NCI/ADR-RES ovarian. The results for the TGI in the assay on SF-539 CNS, in the assay with M14 melanoma and in the assay on UACC-257 melanoma were greater than 100 µM, greater than 100 µM and 70.4 µM, respectively.
Take `CC/C(Cl)=N\OC(=O)Nc1ccc(F)c([N+](=O)[O-])c1`: the TGI is 30.6 µM in the assay on HCT-116 colon; 35 µM in the assay with HOP-62 NSCLC; 46.3 µM in the assay on U251 CNS; 38.9 µM in the assay with SNB-75 CNS; greater than 36.3 µM in the assay with MOLT-4 leukemia; 75.8 µM in the assay on NCI/ADR-RES ovarian. In addition, the results for the TGI in the assay on SF-539 CNS, in the assay on M14 melanoma and in the assay with UACC-257 melanoma were greater than 100 µM, greater than 53.6 µM and 35.1 µM, respectively.
Take `O=C([CH-]C(=O)c1ccccc1)c1ccccc1.O=C([CH-]C(=O)c1ccccc1)c1ccccc1.[O]=[U+2]=[O]`: the GI50 in the assay with HCT-116 colon was 2.99 µM; with U251 CNS, 3.06 µM; in the assay with MOLT-4 leukemia it was 2.57 µM; with SF-539 CNS it was 2.45 µM; in the assay on M14 melanoma, 2.35 µM; in the assay on UACC-257 melanoma, 7.84 µM. The TGI with HCT-116 colon was 15.9 µM; in the assay on U251 CNS it was greater than 100 µM; in the assay on MOLT-4 leukemia, 27.3 µM; in the assay on SF-539 CNS it was 6.44 µM; in the assay on M14 melanoma, 6.42 µM; in the assay with UACC-257 melanoma it was 35.5 µM.
On to `Cc1cn([C@H]2C[C@](C)(CO)N(C)O2)c(=O)[nH]c1=O`, for which the TGI in the assay with HCT-116 colon, in the assay with HL-60(TB) leukemia, in the assay with HOP-62 NSCLC, in the assay on U251 CNS, in the assay with SNB-75 CNS and in the assay on MOLT-4 leukemia was greater than 100 µM each time. The TGI in the assay on NCI/ADR-RES ovarian, in the assay with M14 melanoma and in the assay on UACC-257 melanoma was greater than 100 µM in each case.
